For data set [1], the species on record is Homo sapiens. Put plainly: Liver toxicity in human assessed as induction of drug-induced liver injury by measuring verified drug-induced liver injury concern status.
For data set [2], the species on record is Homo sapiens. The data set can be described thus: Liver toxicity in human assessed as induction of drug-induced liver injury by measuring severity class index.
For DILI severity class in this document: key of the grades not given here.

Regarding `CCCCCCCCCC(=O)OC1(c2ccc(Cl)cc2)CCN(CCCC(=O)c2ccc(F)cc2)CC1` [HALOPERIDOL DECANOATE], the DILI_Concern entry in data set [1] is reported as “Ambiguous-Dili-Concern”. In addition, the DILI_severity_class in data set [2] stood at 3.
On the same counts, the results for `O=C(CCCN1CCC(O)(c2ccc(Cl)cc2)CC1)c1ccc(F)cc1` [HALOPERIDOL] are “Less-Dili-Concern” and 5.
On the same counts, the results for `NCCc1c[nH]cn1.O=P(O)(O)O.O=P(O)(O)O` [HISTAMINE PHOSPHATE] are “No-Dili-Concern” and 0.
On the same counts, the results for `CC(=O)O.CCNC(=O)[C@@H]1CCCN1C(=O)[C@H](CCCNC(=N)N)NC(=O)[C@H](CC(C)C)NC(=O)[C@@H](Cc1cn(Cc2ccccc2)cn1)NC(=O)[C@H](Cc1ccc(O)cc1)NC(=O)[C@H](CO)NC(=O)[C@H](Cc1c[nH]c2ccccc12)NC(=O)[C@H](Cc1cnc[nH]1)NC(=O)[C@@H]1CCC(=O)N1` [HISTRELIN ACETATE] are “Ambiguous-Dili-Concern” and 3.
As to `NNc1nncc2ccccc12` [HYDRALAZINE], the DILI_Concern result in data set [1] is given as “Less-Dili-Concern”. In addition, in data set [2], the DILI_severity_class is reported as 3.
The matching figures for `NS(=O)(=O)c1cc2c(cc1Cl)NCNS2(=O)=O` [HYDROCHLOROTHIAZIDE]: “Less-Dili-Concern” and 2.
Take `C[C@]12CCC(=O)C=C1CC[C@@H]1[C@@H]2[C@@H](O)C[C@@]2(C)[C@H]1CC[C@]2(O)C(=O)CO` [HYDROCORTISONE]: in data set [1], the DILI_Concern entry was “No-Dili-Concern”. Also, in data set [2], the DILI_severity_class stood at 0.
On the same counts, the results for `NS(=O)(=O)c1cc2c(cc1C(F)(F)F)NCNS2(=O)=O` [HYDROFLUMETHIAZIDE] are “Ambiguous-Dili-Concern” and 2.
Turning to `CN1CC[C@]23c4c5ccc(O)c4O[C@H]2C(=O)CC[C@H]3[C@H]1C5` [HYDROMORPHONE], the DILI_Concern result in data set [1] is “Ambiguous-Dili-Concern”. In addition, the DILI_severity_class in data set [2] is recorded as 3.
For `CCN(CCO)CCCC(C)Nc1ccnc2cc(Cl)ccc12` (stereo not given) [HYDROXYCHLOROQUINE], the DILI_Concern entry in data set [1] is given as “Less-Dili-Concern”. Also, the DILI_severity_class in data set [2] was 7.
With `CCCCCC(=O)O[C@]1(C(C)=O)CC[C@H]2[C@@H]3CCC4=CC(=O)CC[C@]4(C)[C@H]3CC[C@@]21C` [HYDROXYPROGESTERONE CAPROATE], the DILI_Concern result in data set [1] is “Ambiguous-Dili-Concern”. Besides, the DILI_severity_class in data set [2] was 2.
On the same counts, the results for `NC(=O)NO` [HYDROXYUREA] are “Most-Dili-Concern” and 8.
As for `OCCOCCN1CCN(C(c2ccccc2)c2ccc(Cl)cc2)CC1` (stereo not given) [HYDROXYZINE], the DILI_Concern entry in data set [1] is “No-Dili-Concern”. Also, in data set [2], the DILI_severity_class worked out at 0.
On the same counts, the results for `CCCCCN(C)CCC(O)(P(=O)(O)O)P(=O)(O)O` [IBANDRONIC ACID] are “No-Dili-Concern” and 0.
The matching figures for `CC(C)Cc1ccc(CC(=O)O)cc1` [IBUFENAC]: “Most-Dili-Concern” and 8.
With `CC(C)Cc1ccc(C(C)C(=O)O)cc1` (stereo not given) [IBUPROFEN], the DILI_Concern entry in data set [1] was “Less-Dili-Concern”. Also, the DILI_severity_class in data set [2] is reported as 3.
In the case of `CCCCCCCN(CC)CCCC(O)c1ccc(NS(C)(=O)=O)cc1` (stereo not given) [IBUTILIDE], the DILI_Concern result in data set [1] was “No-Dili-Concern”. The DILI_severity_class in data set [2] is 0.
`CC(=O)[C@]1(O)Cc2c(O)c3c(c(O)c2[C@@H](O[C@H]2C[C@H](N)[C@H](O)[C@H](C)O2)C1)C(=O)c1ccccc1C3=O` [IDARUBICIN]: the DILI_Concern entry in data set [1] is given as “Ambiguous-Dili-Concern”. For the same compound, the DILI_severity_class in data set [2] is 3.
`O=P1(NCCCl)OCCCN1CCCl` (stereo not given) [IFOSFAMIDE]: the DILI_Concern entry in data set [1] is “Less-Dili-Concern”. Besides, the DILI_severity_class in data set [2] is reported as 4.
On the same counts, the results for `COc1cc(C(C)=O)ccc1OCCCN1CCC(c2noc3cc(F)ccc23)CC1` [ILOPERIDONE] are “Ambiguous-Dili-Concern” and 2.
Take `Cc1ccc(NC(=O)c2ccc(CN3CCN(C)CC3)cc2)cc1Nc1nccc(-c2cccnc2)n1` [IMATINIB]: the DILI_Concern entry in data set [1] is “Most-Dili-Concern”. The DILI_severity_class in data set [2] was 8.
The matching figures for `Nc1cc(-c2ccncc2)c[nH]c1=O` [INAMRINONE]: “Ambiguous-Dili-Concern” and 5.
On the same counts, the results for `CC1Cc2ccccc2N1NC(=O)c1ccc(Cl)c(S(N)(=O)=O)c1` (stereo not given) [INDAPAMIDE] are “Ambiguous-Dili-Concern” and 5.
In the case of `CC1(C)C(/C=C/C=C/C=C/C=C2/N(CCCCS(=O)(=O)[O-])c3ccc4ccccc4c3C2(C)C)=[N+](CCCCS(=O)(=O)[O-])c2ccc3ccccc3c21.[Na+]` [INDOCYANINE GREEN], in data set [1], the DILI_Concern result was “No-Dili-Concern”. Moreover, the DILI_severity_class in data set [2] is listed as 0.
Turning to `COc1ccc2c(c1)c(CC(=O)O)c(C)n2C(=O)c1ccc(Cl)cc1` [INDOMETHACIN], the DILI_Concern result in data set [1] was “Most-Dili-Concern”. For the same compound, the DILI_severity_class in data set [2] is given as 8.
Regarding `CNC[C@H](O)[C@@H](O)[C@H](O)[C@H](O)CO.CNC[C@H](O)[C@@H](O)[C@H](O)[C@H](O)CO.O=C(CCCCC(=O)Nc1c(I)cc(I)c(C(=O)O)c1I)Nc1c(I)cc(I)c(C(=O)O)c1I` [IODIPAMIDE MEGLUMINE], the DILI_Concern result in data set [1] is reported as “No-Dili-Concern”. Also, the DILI_severity_class in data set [2] is 0.
The matching figures for `CNC(=O)c1c(I)c(NC(C)=O)c(I)c(C(=O)[O-])c1I.[Na+]` [IOTHALAMATE SODIUM]: “No-Dili-Concern” and 0.
On the same counts, the results for `O=C(NCC(O)CO)c1c(I)c(C(=O)NCC(O)CO)c(I)c(N(CCO)C(=O)CO)c1I` (stereo not given) [IOVERSOL] are “No-Dili-Concern” and 0.
The matching figures for `CC(C)NNC(=O)c1ccncc1` [IPRONIAZID]: “Most-Dili-Concern” and 8.
On to `CCCCC1=NC2(CCCC2)C(=O)N1Cc1ccc(-c2ccccc2-c2nnn[nH]2)cc1` [IRBESARTAN], for which, in data set [1], the DILI_Concern result is given as “Less-Dili-Concern”. In addition, the DILI_severity_class in data set [2] is 5.
Take `CCc1c2c(nc3ccc(OC(=O)N4CCC(N5CCCCC5)CC4)cc13)-c1cc3c(c(=O)n1C2)COC(=O)[C@]3(O)CC` [IRINOTECAN]: in data set [1], the DILI_Concern entry is on record as “Less-Dili-Concern”. Also, the DILI_severity_class in data set [2] is listed as 3.
Regarding `CC(C)Nc1ncccn1` [ISAXONINE], the DILI_Concern entry in data set [1] is “Most-Dili-Concern”. Also, in data set [2], the DILI_severity_class amounted to 8.
The matching figures for `Cc1cc(C(=O)NNCc2ccccc2)no1` [ISOCARBOXAZID]: “Ambiguous-Dili-Concern” and 5.
Take `NNC(=O)c1ccncc1` [ISONIAZID]: the DILI_Concern entry in data set [1] was “Most-Dili-Concern”. Further, in data set [2], the DILI_severity_class is listed as 8.
On the same counts, the results for `CC(C)NCC(O)c1ccc(O)c(O)c1` (stereo not given) [ISOPROTERENOL] are “No-Dili-Concern” and 0.
On the same counts, the results for `O=[N+]([O-])O[C@H]1CO[C@H]2[C@@H]1OC[C@H]2O[N+](=O)[O-]` [ISOSORBIDE DINITRATE] are “No-Dili-Concern” and 0.
Take `CC1=C(/C=C/C(C)=C/C=C/C(C)=C\C(=O)O)C(C)(C)CCC1` [ISOTRETINOIN]: in data set [1], the DILI_Concern result is reported as “Most-Dili-Concern”. The DILI_severity_class in data set [2] was 5.
As to `CC(COc1ccccc1)NC(C)C(O)c1ccc(O)cc1` (stereo not given) [ISOXSUPRINE], in data set [1], the DILI_Concern result was “No-Dili-Concern”. The DILI_severity_class in data set [2] is given as 0.
On the same counts, the results for `COC(=O)C1=C(C)NC(C)=C(C(=O)OC(C)C)C1c1cccc2nonc12` (stereo not given) [ISRADIPINE] are “Less-Dili-Concern” and 3.
The matching figures for `CCC(C)n1ncn(-c2ccc(N3CCN(c4ccc(OCC5COC(Cn6cncn6)(c6ccc(Cl)cc6Cl)O5)cc4)CC3)cc2)c1=O` (stereo not given) [ITRACONAZOLE]: “Most-Dili-Concern” and 8.
On the same counts, the results for `C/C(=C\c1csc(C)n1)[C@@H]1C[C@@H]2O[C@]2(C)CCC[C@H](C)[C@H](O)[C@@H](C)C(=O)C(C)(C)[C@@H](O)CC(=O)N1` [IXABEPILONE] are “Ambiguous-Dili-Concern” and 7.
Take `CNC1(c2ccccc2Cl)CCCCC1=O` (stereo not given) [KETAMINE]: in data set [1], the DILI_Concern entry was “Less-Dili-Concern”. The DILI_severity_class in data set [2] is reported as 0.
On the same counts, the results for `CC(=O)N1CCN(c2ccc(OCC3COC(Cn4ccnc4)(c4ccc(Cl)cc4Cl)O3)cc2)CC1` (stereo not given) [KETOCONAZOLE] are “Most-Dili-Concern” and 8.
On the same counts, the results for `CC(C(=O)O)c1cccc(C(=O)c2ccccc2)c1` (stereo not given) [KETOPROFEN] are “Less-Dili-Concern” and 3.
Take `O=C(c1ccccc1)c1ccc2n1CCC2C(=O)O` (stereo not given) [KETOROLAC]: in data set [1], the DILI_Concern result is reported as “Less-Dili-Concern”. Besides, in data set [2], the DILI_severity_class amounted to 3.
On the same counts, the results for `CC(CCc1ccccc1)NCC(O)c1ccc(O)c(C(N)=O)c1` (stereo not given) [LABETALOL] are “Most-Dili-Concern” and 8.
With `COC[C@@H](NC(C)=O)C(=O)NCc1ccccc1` [LACOSAMIDE], in data set [1], the DILI_Concern entry was “Ambiguous-Dili-Concern”. In data set [2], the DILI_severity_class came to 3.
On the same counts, the results for `OC[C@H]1O[C@@H](O[C@@H]2[C@@H](CO)O[C@](O)(CO)[C@H]2O)[C@H](O)[C@@H](O)[C@H]1O` [LACTULOSE] are “No-Dili-Concern” and 0.
The matching figures for `Nc1ccn([C@@H]2CS[C@H](CO)O2)c(=O)n1` [LAMIVUDINE]: “Less-Dili-Concern” and 3.
The matching figures for `Nc1nnc(-c2cccc(Cl)c2Cl)c(N)n1` [LAMOTRIGINE]: “Most-Dili-Concern” and 7.

The values above are taken from ChEMBL document CHEMBL4028802, “DILIrank: the largest reference drug list ranked by the risk for developing drug-induced liver injury in humans” (Drug Discov Today, 2016).
